Measured values taken from patent US6753345B2, “7-hexanolytaxol and methods for preparing the same” (Hauser, Inc., priority 1998, dated 2004).
Converted amounts (≈) assume the structure as drawn. Where two headings read alike, the source gives them in different places.

Experiments:
DU-145 = test: SRB cytotoxicity screening assay (Prostate Cancer)
OVCAR-6 = test: SRB cytotoxicity screening assay (Ovarian); conditions: 48 h
MDA-MB-231/ATCC = test: SRB cytotoxicity screening assay (Breast Cancer)
SF-539 = test: SRB cytotoxicity screening assay (CNS Cancer); conditions: Homo sapiens, SF-539, 48 h, read-out: Log10 GI50 (converted)
U251 = test: SRB cytotoxicity screening assay (CNS Cancer)
OVCAR-4 = test: SRB cytotoxicity screening assay (Ovarian)
RXF-393 = test: SRB cytotoxicity screening assay (Renal Cancer)
HCT-116 = test: SRB cytotoxicity screening assay (Colon Cancer); conditions: HCT-116 (Colon Cancer); PG=0; 48 hour incubation
SR = test: SRB cytotoxicity screening assay (Leukemia)
CCRF-CEM cells = test: G2/M arrest; format: cell-based; conditions: minimum concentration that results in 60% of CCRF-CEM cells to arrest in G2-M
EKVX = test: SRB cytotoxicity screening assay (Non-Small Cell Lung Cancer); conditions: Homo sapiens, EKVX, 48 h, read-out: Log10 LC50 (converted)
26 cell lines = test: 26 cell line growth inhibition screen, sulforhodamine stain; format: cell-based; conditions: 26 cell lines, 48 hour drug treatment, sulforhodamine stain
COLO 205 = test: SRB cytotoxicity screening assay (Colon Cancer); conditions: Homo sapiens, COLO 205, 48 h, read-out: Log10 GI50 (converted)
NCI-H522 = test: SRB cytotoxicity screening assay (Non-Small Cell Lung Cancer); conditions: NCI-H522 (Non-Small Cell Lung Cancer); PG=0; 48 hour incubation
[1] = tested on: cell line panel (60 lines, nine disease-related subpanels); test: SRB cytotoxicity screening assay, whole cell line panel (mean values)
OVCAR-3 = test: SRB cytotoxicity screening assay (Ovarian)
MALME-3M = test: SRB cytotoxicity screening assay (Melanoma); conditions: MALME-3M (Melanoma); PG=0; 48 hour incubation
RPMI-8226 = test: SRB cytotoxicity screening assay (Leukemia)
NCI-H226 = test: SRB cytotoxicity screening assay (Non-Small Cell Lung Cancer); conditions: Homo sapiens, NCI-H226, 48 h, read-out: Log10 LC50 (converted)
SW-620 = test: SRB cytotoxicity screening assay (Colon Cancer)
LOX-IMVI = test: cells; conditions: Homo sapiens, 48 h, read-out: Log10 GI50 (converted)
UACC-257 = test: SRB cytotoxicity screening assay (Melanoma)
K-562 = test: SRB cytotoxicity screening assay (Leukemia)
TK-10 = test: SRB cytotoxicity screening assay (Renal Cancer)
A498 = test: SRB cytotoxicity screening assay (Renal Cancer); conditions: Homo sapiens, A498, 48 h
[2] = read-out: Log10 GI50 (converted)
[3] = read-out: Log10 LC50 (converted)

## CC(=O)O[C@H]1C(=O)[C@@]2(C)[C@H]([C@H](OC(=O)c3ccccc3)[C@]3(O)C[C@H](OC(=O)[C@H](O)[C@@H](NC(=O)c4ccccc4)c4ccccc4)C(C)=C1C3(C)C)[C@]1(OC(C)=O)CO[C@@H]1C[C@@H]2O [Paclitaxel, paclitaxel, reference compound]
DU-145; DU-145 (Prostate Cancer), PG=0, 48 hour incubation
  Log10 TGI: >−4.00 molar
DU-145; Homo sapiens, DU-145, 48 h, read-out: Log10 GI50 (converted)
  GI50: 0.417 nM
DU-145; Homo sapiens, DU-145, 48 h, read-out: Log10 LC50 (converted)
  CC50: > 100 µM
OVCAR-6; [2]
  GI50: 0.0178 nM
OVCAR-6; [3]
  CC50: > 100 µM
MDA-MB-231/ATCC; Homo sapiens, MDA-MB-231, 48 h, read-out: Log10 GI50 (converted)
  GI50: 2.88 nM
MDA-MB-231/ATCC; Homo sapiens, MDA-MB-231, 48 h, read-out: Log10 LC50 (converted)
  CC50: 51.3 µM
MDA-MB-231/ATCC; MDA-MB-231/ATCC (Breast Cancer), PG=0, 48 hour incubation
  Log10 TGI: −4.84 molar
SF-539
  GI50: 8.13 pM
U251; Homo sapiens, U-251, 48 h, read-out: Log10 GI50 (converted)
  GI50: 5.13 pM
U251; U251 (CNS Cancer), PG=0, 48 hour incubation
  Log10 TGI: −4.32 molar
OVCAR-4; Homo sapiens, OVCAR-4, 48 h, read-out: Log10 GI50 (converted)
  GI50: 1580 nM
OVCAR-4; OVCAR-4 (Ovarian), PG=0, 48 hour incubation
  Log10 TGI: −4.19 molar
RXF-393; Homo sapiens, RXF 393, 48 h, read-out: Log10 GI50 (converted)
  GI50: 4.79 nM
RXF-393; Homo sapiens, RXF 393, 48 h, read-out: Log10 LC50 (converted)
  CC50: 35.5 µM
RXF-393; RXF-393 (Renal Cancer), PG=0, 48 hour incubation
  Log10 TGI: −4.90 molar
HCT-116
  Log10 TGI: −4.82 molar
SR; Homo sapiens, SR, 48 h, read-out: Log10 GI50 (converted)
  GI50: 4.57 nM
SR; Homo sapiens, SR, 48 h, read-out: Log10 LC50 (converted)
  CC50: > 100 µM
SR; SR (Leukemia), PG=0, 48 hour incubation
  Log10 TGI: >−4.00 molar
CCRF-CEM cells
  G2/M arrest MED: 0.025 µg/mL
EKVX
  CC50: > 100 µM
26 cell lines; read-out: Mean IC50 (26 cell line Mean Growth inhibition IC50 value)
  IC50: 0.02 µg/mL (≈ 0.0234 µM)
26 cell lines; read-out: Min IC50 (lowest observed IC50 value in 26 cell line screen)
  IC50: 0.001 µg/mL (≈ 0.00117 µM)
COLO 205
  GI50: 8.51 pM
NCI-H522
  Log10 TGI: −11.20 molar
[1]; mean value over the cell line panel
  Log10 TGI, MG_MID: −4.54 molar
[1]; read-out: Log10 GI50, MG_MID (converted)
  GI50: 0.0708 nM
[1]; read-out: Log10 LC50, MG_MID (converted)
  CC50: 87.1 µM
OVCAR-3; Homo sapiens, OVCAR-3, 48 h, read-out: Log10 GI50 (converted)
  GI50: 0.0398 nM
OVCAR-3; OVCAR-3 (Ovarian), PG=0, 48 hour incubation
  Log10 TGI: −4.55 molar
MALME-3M
  Log10 TGI: −4.46 molar
RPMI-8226; Homo sapiens, RPMI-8226, 48 h, read-out: Log10 LC50 (converted)
  CC50: > 100 µM
RPMI-8226; RPMI-8226 (Leukemia), PG=0, 48 hour incubation
  Log10 TGI: >−4.00 molar
NCI-H226
  CC50: > 100 µM
SW-620; Homo sapiens, SW-620, 48 h, read-out: Log10 GI50 (converted)
  GI50: 2.51 pM
SW-620; SW-620 (Colon Cancer), PG=0, 48 hour incubation
  Log10 TGI: >−4.00 molar
LOX-IMVI
  GI50: 1.58 pM
UACC-257; Homo sapiens, UACC-257, 48 h, read-out: Log10 GI50 (converted)
  GI50: 0.0501 nM
UACC-257; Homo sapiens, UACC-257, 48 h, read-out: Log10 LC50 (converted)
  CC50: 93.3 µM
UACC-257; UACC-257 (Melanoma), PG=0, 48 hour incubation
  Log10 TGI: −4.52 molar
K-562; Homo sapiens, K562, 48 h, read-out: Log10 GI50 (converted)
  GI50: 0.0148 nM
K-562; Homo sapiens, K562, 48 h, read-out: Log10 LC50 (converted)
  CC50: > 100 µM
K-562; K-562 (Leukemia), PG=0, 48 hour incubation
  Log10 TGI: >−4.00 molar
TK-10; Homo sapiens, TK-10, 48 h, read-out: Log10 GI50 (converted)
  GI50: 12.9 nM
TK-10; Homo sapiens, TK-10, 48 h, read-out: Log10 LC50 (converted)
  CC50: > 100 µM
TK-10; TK-10 (Renal Cancer), PG=0, 48 hour incubation
  Log10 TGI: >−4.00 molar
A498; [2]
  GI50: 72.4 nM
A498; [3]
  CC50: 74.1 µM
